What was measured:
MLCK(h) = MLCK(h) (Homo sapiens, UniProt Q9H1R3); test: Protein kinase inhibition assay; type: biochemical; settings: read-out: percent residual activity of MLCK(h)
Method: (§1) Certain compounds were tested for activity in protein kinase inhibition assays. All substrates were dissolved and diluted to working stocks in de-ionized water, apart from histone H1 (10× working stock in 20 mM MOPS pH 7.0), PDKtide (10× working stock in 50 mM Tris pH 7.0) ATF2 (which is typically stored at a 20× working stock in 50 mM Tris pH 7.5, 150 mM NaCl, 0.1 mM EGTA, 0.03% Brij-35, 50% glycerol, 1 mM benzamidine, 0.2 mM PMSF and 0.1% R-mercaptoethanol), KKLNRTLSFAEPG (SEQ ID NO:203) and RRRLSFAEPG (SEQ ID NO:204) (50 mM HEPES pH 7.4) and GGEEEEYFELVKKKK (SEQ ID NO:205) (20 mM MOPS pH 7.0). All kinases were pre-diluted to a 10× working concentration prior to addition into the assay. The composition of the dilution buffer for each kinase is detailed below.
In a final reaction volume of 25 μl, MLCK (h) (5-10 mU) is incubated with 8 mM MOPS pH 7.0, 0.2 mM EDTA, 0.5 mM CaCl2, 16 μg/ml calmodulin,250 μM KKLNRTLSFAEPG (SEQ ID NO:203), 10 mM MgAcetate and [gamma-33P-ATP] (specific activity approx. 500 cpm/pmol, concentration as required). The reaction is initiated by the addition of the MgATP mix. After incubation for 40 minutes at room temperature, the reaction is stopped by the addition of 5 μl of a 3% phosphoric acid solution. […]

Rsk1(r) = Rsk1(r) (Rattus norvegicus, UniProt Q63531); test: Protein kinase inhibition assay; type: biochemical; settings: read-out: percent residual activity of Rsk1(r)
Chain of Rsk1(r) (Q63531 whole entry): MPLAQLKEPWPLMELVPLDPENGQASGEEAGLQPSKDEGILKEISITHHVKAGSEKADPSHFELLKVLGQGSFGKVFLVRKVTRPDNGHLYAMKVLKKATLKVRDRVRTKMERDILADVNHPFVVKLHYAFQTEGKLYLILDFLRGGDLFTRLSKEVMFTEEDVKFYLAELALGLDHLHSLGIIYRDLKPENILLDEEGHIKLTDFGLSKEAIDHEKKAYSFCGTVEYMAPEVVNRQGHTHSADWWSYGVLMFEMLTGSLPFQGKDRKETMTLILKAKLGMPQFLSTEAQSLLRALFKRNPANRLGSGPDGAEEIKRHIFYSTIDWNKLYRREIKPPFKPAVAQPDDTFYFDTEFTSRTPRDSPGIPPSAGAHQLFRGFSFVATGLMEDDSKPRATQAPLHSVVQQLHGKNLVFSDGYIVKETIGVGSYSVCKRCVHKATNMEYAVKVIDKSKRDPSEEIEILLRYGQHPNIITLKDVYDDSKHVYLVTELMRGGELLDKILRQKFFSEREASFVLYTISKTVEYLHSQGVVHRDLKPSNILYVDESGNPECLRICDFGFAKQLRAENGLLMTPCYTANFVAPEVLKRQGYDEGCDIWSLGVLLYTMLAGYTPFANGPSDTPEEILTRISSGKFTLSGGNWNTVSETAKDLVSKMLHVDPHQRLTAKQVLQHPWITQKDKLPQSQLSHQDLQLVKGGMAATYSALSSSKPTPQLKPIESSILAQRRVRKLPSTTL
Method: as §1
(§2) In a final reaction volume of 25 μl, Rsk1 (r) (5-10 mU) is incubated with 8 mM MOPS pH 7.0, 0.2 mM EDTA, 30 μM KKKNRTLSVA (SEQ ID NO:212), 10 mM MgAcetate and [gamma-33P-ATP] (specific activity approx. 500 cpm/pmol, concentration as required). The reaction is initiated by the addition of the MgATP mix. After incubation for 40 minutes at room temperature, the reaction is stopped by the addition of 5 μl of a 3% phosphoric acid solution. 10 μl of the reaction is then spotted onto a P30 filtermat and washed three times for 5 minutes in 75 mM phosphoric acid and once in methanol prior to drying and scintillation counting.

EphA2(h) = EphA2(h) (Homo sapiens, UniProt P29317); test: Protein kinase inhibition assay; type: biochemical; settings: read-out: percent residual activity of EphA2(h)
Chain of EphA2(h) (P29317 24-976): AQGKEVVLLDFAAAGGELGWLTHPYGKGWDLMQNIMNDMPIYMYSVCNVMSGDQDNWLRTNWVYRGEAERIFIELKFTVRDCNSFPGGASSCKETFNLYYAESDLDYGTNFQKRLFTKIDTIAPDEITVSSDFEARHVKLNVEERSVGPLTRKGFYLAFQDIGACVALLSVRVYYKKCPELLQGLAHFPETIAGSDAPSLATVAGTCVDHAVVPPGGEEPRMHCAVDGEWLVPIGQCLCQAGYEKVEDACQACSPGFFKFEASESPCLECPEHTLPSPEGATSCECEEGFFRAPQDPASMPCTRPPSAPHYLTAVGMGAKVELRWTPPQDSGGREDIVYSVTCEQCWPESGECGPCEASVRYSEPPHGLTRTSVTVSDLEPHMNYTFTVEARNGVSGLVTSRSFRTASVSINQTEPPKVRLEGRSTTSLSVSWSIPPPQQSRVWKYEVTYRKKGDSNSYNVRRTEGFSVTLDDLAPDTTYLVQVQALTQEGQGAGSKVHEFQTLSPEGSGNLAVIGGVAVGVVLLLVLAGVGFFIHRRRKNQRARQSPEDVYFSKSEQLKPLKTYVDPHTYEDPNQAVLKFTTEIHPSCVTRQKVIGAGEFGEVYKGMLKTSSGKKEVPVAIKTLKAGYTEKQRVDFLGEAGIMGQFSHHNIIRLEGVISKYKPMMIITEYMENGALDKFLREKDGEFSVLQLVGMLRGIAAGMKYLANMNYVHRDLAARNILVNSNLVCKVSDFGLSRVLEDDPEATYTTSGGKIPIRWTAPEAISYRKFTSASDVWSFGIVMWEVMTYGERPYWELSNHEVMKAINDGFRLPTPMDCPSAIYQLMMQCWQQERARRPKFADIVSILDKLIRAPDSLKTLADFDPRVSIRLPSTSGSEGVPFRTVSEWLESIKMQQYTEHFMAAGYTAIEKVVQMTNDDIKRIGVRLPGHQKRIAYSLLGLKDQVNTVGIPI
Method: as §1
as §2, with “EphA2 (h)” for “Rsk1 (r)”, “0.1 mg/ml poly(Glu, Tyr) 4:1,” for “30 μM KKKNRTLSVA (SEQ ID NO:212),”, “Filtermat A” for “P30 filtermat”

PRK2(h) = PRK2(h) (Homo sapiens, UniProt Q16513); test: Protein kinase inhibition assay; type: biochemical; settings: read-out: percent residual activity of PRK2(h)
Chain of PRK2(h) (Q16513 whole entry): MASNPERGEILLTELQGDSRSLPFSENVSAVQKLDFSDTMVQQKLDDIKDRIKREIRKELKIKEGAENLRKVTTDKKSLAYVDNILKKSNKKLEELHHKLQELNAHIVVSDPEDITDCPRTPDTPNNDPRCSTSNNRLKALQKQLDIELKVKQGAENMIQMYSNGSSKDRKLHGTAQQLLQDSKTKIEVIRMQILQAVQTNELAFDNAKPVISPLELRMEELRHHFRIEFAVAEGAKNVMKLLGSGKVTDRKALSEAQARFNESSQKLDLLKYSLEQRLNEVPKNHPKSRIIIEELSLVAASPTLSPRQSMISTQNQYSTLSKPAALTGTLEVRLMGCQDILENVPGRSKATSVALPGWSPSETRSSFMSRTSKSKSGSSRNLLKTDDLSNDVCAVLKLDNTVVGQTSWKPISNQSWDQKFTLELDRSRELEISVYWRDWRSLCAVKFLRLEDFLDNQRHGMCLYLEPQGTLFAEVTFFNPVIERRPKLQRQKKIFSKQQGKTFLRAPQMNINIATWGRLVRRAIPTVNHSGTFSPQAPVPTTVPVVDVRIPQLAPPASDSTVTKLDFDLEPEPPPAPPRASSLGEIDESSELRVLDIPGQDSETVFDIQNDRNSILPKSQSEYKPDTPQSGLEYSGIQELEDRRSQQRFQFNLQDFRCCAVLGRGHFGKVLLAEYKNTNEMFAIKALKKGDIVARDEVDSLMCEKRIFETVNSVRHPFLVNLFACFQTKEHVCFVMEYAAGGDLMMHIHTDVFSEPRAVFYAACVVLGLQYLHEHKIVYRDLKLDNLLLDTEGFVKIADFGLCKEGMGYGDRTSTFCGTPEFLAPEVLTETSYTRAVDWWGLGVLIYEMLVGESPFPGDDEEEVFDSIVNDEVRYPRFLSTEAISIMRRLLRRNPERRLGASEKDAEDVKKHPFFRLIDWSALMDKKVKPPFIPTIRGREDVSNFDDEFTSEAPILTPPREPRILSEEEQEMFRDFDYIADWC
Method: as §1
In a final reaction volume of 25 μl, PRK2 (h) (5-10 mU) is incubated with 50 mM Tris pH 7.5, 0.1 mM EGTA, 0.1% R-mercaptoethanol, 30 μM AKRRRLSSLRA (SEQ ID NO:226), 10 mM MgAcetate and [gamma-33P-ATP] (specific activity approx. 500 cpm/pmol, concentration as required). The reaction is initiated by the addition of the MgATP mix. After incubation for 40 minutes at room temperature, the reaction is stopped by the addition of 5 μl of a 3% phosphoric acid solution. […]

HCT116 cells = test: DNA synthesis (BrdU-ELISA); type: cell-based; settings: for A-1 a concentration at which many of the cells were dead
Method: Effects of compound A-1 and compound B-1 on DNA synthesis, RNA synthesis and protein synthesis were determined in HCT116 cells. HCT116 cells were plated overnight at 100,000 cells per mL. Next day cells were treated with increasing amounts of either compound A-1 or compound B-1 followed by one hour incubation with BrdU label (from a BrdU Cell proliferation Assay Kit, Calbiochem) to monitor DNA synthesis; […] of ^3H-uridine to monitor total RNA synthesis; […] of ^3H-methionine to monitor protein synthesis or plain media to monitor RNA Polymerase II-dependent RNA synthesis. DNA synthesis was assessed using a BrdU-ELISA (BrdU Cell proliferation Assay Kit, Calbiochem). To measure total RNA synthesis, total RNA from treated cells was isolated with a RNease kit (QIAGEN), levels of total RNA were assessed with Ribogreen reagent (Invitrogen) and the newly synthesized tritiated RNA was measured in a scintillation Counter (Perkin Elmer). To measure effects on protein synthesis, cells were lysed in a RIPA buffer, and total protein was precipitated with 10% TCA on a glass-filters. Newly synthesized tritiated protein was measured in a scintillation Counter (Perkin Elmer). Effects of drugs on […] RNA synthesis were assessed by monitoring levels of a c-myc mRNA, which has a relatively short half-life of approximately 30 minutes, by Taqman qRT-PCR (ABI).

MST1(h) = MST1(h) (Homo sapiens, UniProt Q13043); test: Protein kinase inhibition assay; type: biochemical; settings: read-out: percent residual activity of MST1(h)
Chain of MST1(h) (Q13043 whole entry): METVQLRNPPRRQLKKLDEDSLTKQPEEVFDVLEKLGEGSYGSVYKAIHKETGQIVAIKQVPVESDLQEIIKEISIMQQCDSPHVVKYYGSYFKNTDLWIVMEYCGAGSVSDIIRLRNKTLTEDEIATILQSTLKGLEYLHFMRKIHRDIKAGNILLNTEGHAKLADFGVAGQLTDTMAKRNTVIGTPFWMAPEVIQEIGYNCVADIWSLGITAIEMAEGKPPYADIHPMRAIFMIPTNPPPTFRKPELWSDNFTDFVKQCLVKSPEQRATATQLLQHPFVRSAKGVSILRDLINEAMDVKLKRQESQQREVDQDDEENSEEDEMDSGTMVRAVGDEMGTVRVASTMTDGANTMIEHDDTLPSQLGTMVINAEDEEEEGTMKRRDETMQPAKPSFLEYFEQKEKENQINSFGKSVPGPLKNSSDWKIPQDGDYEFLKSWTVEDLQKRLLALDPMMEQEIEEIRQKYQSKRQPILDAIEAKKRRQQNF
Method: as §1
as §2, with “μl, MST1 (h)” for “μl, Rsk1 (r)”, “EDTA, 250” for “EDTA, 30”, “μM KKSRGDYMTMQIG” for “μM KKKNRTLSVA”, “ID NO:210),” for “ID NO:212),”

remaining activity at 2.5 µM (MLCK(h)) [%] | remaining activity at 2.5 µM (Rsk1(r)) [%] | remaining activity at 2.5 µM (EphA2(h)) [%] | remaining activity at 2.5 µM (PRK2(h)) [%] | remaining activity at 2.5 µM (MST1(h)) [%] | SMILES | concentration that significantly reduced DNA synthesis (HCT116 cells) [µM]
77 | 85 | 101 | 36 | 76 | CN1CCCC1CCNC(=O)c1cn2c3c(c(N4CCC(c5cnccn5)C4)c(F)cc3c1=O)Oc1cc3ccccc3cc1-2 (stereo not drawn) [Compound A-1] | 10
94 | 110 | 102 | 110 | 96 | CC(=O)N1CCN(c2ccc3c(=O)c(C(=O)NCCN4CCCC4)c4n(C)c5ccccc5n4c3n2)CC1 [Compound B-1] | 30

— patent publication US20070117770A1, “Human ribosomal DNA (rDNA) and ribosomal RNA (rRNA) nucleic acids and uses thereof” (Cylene Pharmaceuticals, Inc., priority 2005, published 2007)
